# Experimental data from article PMC8151848, “Tambjamines and Prodiginines: Biocidal Activity against Trypanosoma cruzi” (Pharmaceutics, 2021).
# Where two headings read alike, the source gives them in different places.
# Columns and labels:
# [1] = test system: trypomastigotes/amastigotes of T. cruzi (CLB strain); experiment: Trypomastigote/amastigote susceptibility assay in infected L-929 fibroblasts; type: cell-based, Trypanosoma cruzi; conditions: for IC50: read-out: IC50 (µM) trypomastigote/amastigote growth inhibition, CLB strain, 96 h treatment
# Method: This assay was performed in 96-well microplates. Briefly, 4 × 10^3 L-929 fibroblasts were seeded in 80 µl of MEM containing 10% FBS and antibiotics. The plate was placed overnight at 37 °C in a 5% CO2 humidified incubator to allow cell adherence. Afterward, the cells were infected with 20 µL of trypomastigotes (40,000 trypomastigotes/well (4000 mammalian cells)) diluted in the same medium. The cell:parasite ratio was 1:10. Plates were incubated for 2 h at 33 °C and 5% CO2. The medium was then discarded to dispose of nonpenetrated parasites and replaced with 200 µL of MEM without phenol red supplemented with FBS and antibiotics. After 48 h of incubation, the content of the wells was replaced with a fresh medium containing the dilutions of the compounds. The plates were returned to the incubator for an additional 96 h under the same conditions. Wells containing drug blanks, medium, fibroblasts, and untreated infected cells were included in all the plates as controls. An internal control of the reference drug (benznidazole) was also included. Next, 50 µl of substrate CPRG (diluted in 3% Triton X-100 solution) were added at a final concentration of 400 µM. After 18–20 h of incubation at 37 °C, absorbance readings were taken at 595 nm using a scanning multiwell spectrophotometer. All the assays were performed in triplicate and the experiments were run three times in different weeks. The results are expressed as the percentage of trypomastigote/amastigote growth inhibition (% T/A GI value) as follows:(2) %Trypomastigote/Amastigote growth inhibition=100−(AE−AEB)/(AC−ACB) ×100 where AE is the absorbance of the experimental group, AEB the absorbance of the compound blank, AC the absorbance of the control group, and ACB the absorbance of the culture medium blank. The IC50 values (the drug concentration that eliminates 50% of the parasites) were determined for each compound using the GraphPad Prism software.
# [2] = test system: epimastigotes of T. cruzi (CL strain, clone B5); design: method as in PMID 31210760; conditions: read-out: IC50 against epimastigotes of T. cruzi (earlier study); cited from earlier work
# [3] = test system: Entamoeba; design: method as in PMID 32196500; conditions: read-out: IC50 against Entamoeba; cited from earlier work
# [4] = test system: Giardia; design: method as in PMID 32196500; conditions: read-out: IC50 against Giardia; cited from earlier work
# [5] = test system: Trypanosoma brucei; design: method as in PMID 32196500; conditions: read-out: IC50 against Trypanosoma brucei; cited from earlier work
# [6] = POPC vesicles, external nitrate; ref 1 (Hernando et al., Sci. Rep., 2018); read-out: EC50 (µM) NO3–/Cl–; cited from earlier work
# [7] = IC50 for L-929 fibroblasts / IC50 for T. cruzi trypomastigotes/amastigotes
# [8] = Trypanosoma cruzi, L929, highest concentration assayed (16 µM), n = 9, read-out: % Trypomastigote/Amastigote Growth Inhibition (%T/A GI ± SD)
SMILES,"Selectivity index (SI), Trypomastigotes [1, 7]",IC50 [1] [µM],"IC50 ([1]; Trypanosoma cruzi, L929) [µM]","inhibition at 16 µM [1, 8] [%]",also measured
"CCCCCC1=C/C(=C/c2[nH]c(-c3ccc[nH]3)cc2OC)N=C1C [Natural prodigiosin, prodigiosin]",50,0.1 ± 0.04,,,"% Trypomastigote/Amastigote Growth Inhibition (%T/A GI ± SD) ([1]; highest concentration assayed (16 µM), n = 9): 100 ± 0%"
"O=C(Cn1ccnc1[N+](=O)[O-])NCc1ccccc1 [Benznidazole, reference compound]",779.71,,1.76 ± 0.34,76 ± 5.02,IC50 [2]: 18000 nM
"CCCCCC1=C/C(=C/c2[nH]c(-c3ccc[nH]3)cc2OC)N=C1C [Synthetic prodigiosin, prodigiosin]",5.36,0.57 ± 0.19,,,"inhibition at 16 µM ([1]; Trypanosoma cruzi, L929, read-out: % Trypomastigote/Amastigote Growth Inhibition (%T/A GI ± SD)): 100%"
"COC1=CC(c2cc3ccccc3[nH]2)=N/C1=C\c1[nH]c(C)cc1C [Obatoclax, reference compound]",,,2.6 ± 0.4,88.4 ± 6,"Selectivity index (SI), Trypomastigotes [1]: 2.24; IC50 [3]: 500 nM; IC50 [4]: 900 nM; IC50 [5]: 40 nM"
CCc1c(-c2ccc[nH]2)[nH]c(/C=N/C2CCCCC2)c1C [MM3],6.42,,1.9 ± 0.45,97.1 ± 3.01,EC50 [6]: 0.035 µM
